Broadly, the IC50 is the concentration at which inhibition is half-maximal. A lower IC50 goes with higher potency.

Here are results for 29 compounds from patent publication US10954232B2, “Pyrazole derivative as ALK5 inhibitor and uses thereof” (HANMI PHARMACEUTICAL CO., LTD., priority 2016, dated 2021).

This test addresses T1, ALK5 kinase (Homo sapiens, UniProt P36897).
T1 construct: GST; purchased Thermo Fisher Scientific Solutions
T1 sequence (P36897 34-503): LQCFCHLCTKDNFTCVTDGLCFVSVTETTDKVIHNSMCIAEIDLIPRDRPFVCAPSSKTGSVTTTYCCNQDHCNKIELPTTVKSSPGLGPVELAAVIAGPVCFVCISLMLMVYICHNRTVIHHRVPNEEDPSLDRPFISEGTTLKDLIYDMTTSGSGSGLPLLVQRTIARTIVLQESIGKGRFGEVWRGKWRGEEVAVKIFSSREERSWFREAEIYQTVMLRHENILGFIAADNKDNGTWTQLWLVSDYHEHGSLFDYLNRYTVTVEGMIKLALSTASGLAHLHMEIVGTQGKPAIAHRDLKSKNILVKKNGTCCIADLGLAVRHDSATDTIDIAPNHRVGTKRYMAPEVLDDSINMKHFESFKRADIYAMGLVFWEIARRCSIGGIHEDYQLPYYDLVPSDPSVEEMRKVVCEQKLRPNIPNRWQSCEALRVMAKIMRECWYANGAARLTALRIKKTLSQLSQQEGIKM
The test is described as follows: Activity inhibition test on ALK5 enzyme (LanthaScreen Eu binding kinase assay). The note with it: kinase tracer 178, 60 minutes at room temperature. The procedure, abridged: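 IC50 is the concentration giving 50% inhibition relative to control, taken from fluorescence after 60 min stirring at room temperature. Final mix held kinase 5 nM, Eu-GST binding antibody 2 nM and tracer 178 10 nM. Compounds were serially diluted from 1 μM to 0.0001 μM.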

Consider `Cc1cccc(-n2nc(C(=O)Nc3cccc(CO)c3)cc2-c2ccc3ncsc3c2)n1` [Example 84, 5-(benzo[d]thiazol-6-yl)-N-(3-(hydroxymethyl)phenyl)-1-(6-methylpyridin-2-yl)-1H-pyrazole-3-carboxyamide], for which the concentration for half-maximal inhibition (IC50) came out at 3.9 nM.
Compound `Cc1cccc(-n2nc(C(=O)Nc3ccc(CO)cc3)cc2-c2ccc3ncsc3c2)n1` [Example 85, 5-(benzo[d]thiazol-6-yl)-N-(4-(hydroxymethyl)phenyl)-1-(6-methylpyridin-2-yl)-1H-pyrazole-3-carboxyamide] registered an IC50 of 3.8 nM.
For `Cc1cccc(-n2nc(C(=O)Nc3ccc(N)cc3)cc2-c2ccc3ncsc3c2)n1` [Example 86, N-(4-aminophenyl)-5-(benzo[d]thiazol-6-yl)-1-(6-methylpyridin-2-yl)-1H-pyrazole-3-carboxyamide] the value was 1.1 nM; for `CCCCNc1ccc(NC(=O)c2cc(-c3ccc4ncsc4c3)n(-c3cccc(C)n3)n2)cc1` [Example 87, 5-(benzo[d]thiazol-6-yl)-N-(4-(butylamino)phenyl)-1-(6-methylpyridin-2-yl)-1H-pyrazole-3-carboxyamide], 9.1 nM.
With `Cc1cccc(-n2nc(C(=O)Nc3ccc(NC4CC4)cc3)cc2-c2ccc3ncsc3c2)n1` [Example 88, 5-(benzo[d]thiazol-6-yl)-N-(4-(cyclopropylamino)phenyl)-1-(6-methylpyridin-2-yl)-1H-pyrazole-3-carboxyamide], the IC50 is 3.5 nM.
To `Cc1cccc(-n2nc(C(=O)Nc3ccc(S(C)(=N)=O)cc3)cc2-c2ccc3ncsc3c2)n1` (centres unmarked) [Example 89, 5-(benzo[d]thiazol-6-yl)-1-(6-methylpyridin-2-yl)-N-(4-(S-methylsulfonimidoyl)phenyl)-1H-pyrazole-3-carboxyamide] belongs 3.5 nM.
To `COc1ccccc1NC(=O)c1cc(-c2ccc3ncnn3c2)n(-c2cccc(C)n2)n1` [Example 90, 5-([1,2,4]triazolo[1,5-α]pyridin-6-yl)-N-(2-methoxyphenyl)-1-(6-methylpyridin-2-yl)-1H-pyrazole-3-carboxyamide] belongs 5 nM.
To `COc1cccc(NC(=O)c2cc(-c3ccc4ncnn4c3)n(-c3cccc(C)n3)n2)c1` [Example 91, 5-([1,2,4]triazolo[1,5-α]pyridin-6-yl)-N-(3-methoxyphenyl)-1-(6-methylpyridin-2-yl)-1H-pyrazole-3-carboxyamide] belongs 10 to 100 nM.
`COc1ccccc1NC(=O)c1cc(-c2ccc3ncnn3c2)n(-c2cccc(C)n2)n1` [Example 92, 5-([1,2,4]triazolo[1,5-α]pyridin-6-yl)-N-(2-methoxyphenyl)-1-(6-methylpyridin-2-yl)-1H-pyrazole-3-carboxyamide] came in with a 50% inhibitory concentration (IC50) of 10 to 100 nM.
With `Cc1cccc(-n2nc(C(=O)Nc3ccc(O)cc3)cc2-c2ccc3ncnn3c2)n1` [Example 93, 5-([1,2,4]triazolo[1,5-α]pyridin-6-yl)-N-(4-hydroxyphenyl)-1-(6-methylpyridin-2-yl)-1H-pyrazole-3-carboxyamide], the half-inhibitory concentration (IC50) was found to be 3.9 nM.
For `Cc1cccc(-n2nc(C(=O)Nc3ccc(OC(C)C)cc3)cc2-c2ccc3ncnn3c2)n1` [Example 94] the value was around 10 nM; for `COCCOc1ccc(NC(=O)c2cc(-c3ccc4ncnn4c3)n(-c3cccc(C)n3)n2)cc1` [Example 95, 5-([1,2,4]triazolo[1,5-α]pyridin-6-yl)-N-(4-(2-methoxyethoxy)phenyl)-1-(6-methylpyridin-2-yl)-1H-pyrazole-3-carboxyamide], 25 nM; for `Cc1cccc(-n2nc(C(=O)Nc3ccc4c(c3)OCO4)cc2-c2ccc3ncnn3c2)n1` [Example 96, 5-([1,2,4]triazolo[1,5-α]pyridin-6-yl)-N-(benzo[d][1,3]dioxol-5-yl)-1-(6-methylpyridin-2-yl)-1H-pyrazole-3-carboxyamide], 3.5 nM.
To `COc1ccc(NC(=O)c2cc(-c3ccc4ncnn4c3)n(-c3cccc(C)n3)n2)c(F)c1` [Example 97, 5-([1,2,4]triazolo[1,5-α]pyridin-6-yl)-N-(2-fluoro-4-methoxyphenyl)-1-(6-methylpyridin-2-yl)-1H-pyrazole-3-carboxyamide] belongs 10 to 100 nM.
To `COc1ccc(NC(=O)c2cc(-c3ccc4ncnn4c3)n(-c3cccc(C)n3)n2)cc1F` [Example 98, 5-([1,2,4]triazolo[1,5-α]pyridin-6-yl)-N-(3-fluoro-4-methoxyphenyl)-1-(6-methylpyridin-2-yl)-1H-pyrazole-3-carboxyamide] belongs 5.3 nM; to `Cc1cccc(-n2nc(C(=O)Nc3ccccc3OC(F)(F)F)cc2-c2ccc3ncnn3c2)n1` [Example 99, 5-([1,2,4]triazolo[1,5-α]pyridin-6-yl)-1-(6-methylpyridin-2-yl)-N-(2-(trifluoromethoxy)phenyl)-1H-pyrazole-3-carboxyamide], around 10 nM; to `Cc1cccc(-n2nc(C(=O)Nc3cccc(OC(F)(F)F)c3)cc2-c2ccc3ncnn3c2)n1` [Example 100, 5-([1,2,4]triazolo[1,5-α]pyridin-6-yl)-1-(6-methylpyridin-2-yl)-N-(3-(trifluoromethoxy)phenyl)-1H-pyrazole-3-carboxyamide], 10 to 100 nM.
`Cc1cccc(-n2nc(C(=O)Nc3ccc(OC(F)(F)F)cc3)cc2-c2ccc3ncnn3c2)n1` [Example 101, 5-([1,2,4]triazolo[1,5-α]pyridin-6-yl)-1-(6-methylpyridin-2-yl)-N-(4-(trifluoromethoxy)phenyl)-1H-pyrazole-3-carboxyamide] had an IC50 of 10 to 100 nM.
To `Cc1cccc(-n2nc(C(=O)Nc3cccc(N(C)C)c3)cc2-c2ccc3ncnn3c2)n1` [Example 102, 5-([1,2,4]triazolo[1,5-α]pyridin-6-yl)-N-(3-(dimethylamino)phenyl)-1-(6-methylpyridin-2-yl)-1H-pyrazole-3-carboxyamide] belongs 10 to 100 nM; to `Cc1cccc(-n2nc(C(=O)Nc3ccc(N)cc3)cc2-c2ccc3ncnn3c2)n1` [Example 103, 5-([1,2,4]triazolo[1,5-α]pyridin-6-yl)-N-(4-aminophenyl)-1-(6-methylpyridin-2-yl)-1H-pyrazole-3-carboxyamide], 9.1 nM.
For `Cc1cccc(-n2nc(C(=O)Nc3ccc(N(C)C)cc3)cc2-c2ccc3ncnn3c2)n1` [Example 104, 5-([1,2,4]triazolo[1,5-α]pyridin-6-yl)-N-(4-(dimethylamino)phenyl)-1-(6-methylpyridin-2-yl)-1-H-pyrazole-3-carboxyamide] the value was 7 nM.
`Cc1cccc(-n2nc(C(=O)Nc3ccc(N4CCCC4)cc3)cc2-c2ccc3ncnn3c2)n1` [Example 105, 5-([1,2,4]triazolo[1,5-α]pyridin-6-yl)-N-(4-(pyrrolidin-1-yl)phenyl)-1-(6-methylpyridin-2-yl)-1H-pyrazole-3-carboxyamide]: the half-inhibitory concentration (IC50) stood at 7 nM.
For `Cc1cccc(-n2nc(C(=O)Nc3ccc(N(C)CCN(C)C)cc3)cc2-c2ccc3ncnn3c2)n1` [Example 106, 5-([1,2,4]triazolo[1,5-α]pyridin-6-yl)-N-(4-((2-(dimethylamino)ethyl)(methyl)amino)phenyl)-1-(6-methylpyridin-2-yl)-1H-pyrazole-3-carboxyamide] the value was 14 nM; for `Cc1cccc(-n2nc(C(=O)Nc3ccc(N4CCN(C)CC4)cc3)cc2-c2ccc3ncnn3c2)n1` [Example 107, 5-([1,2,4]triazolo[1,5-α]pyridin-6-yl)-N-(4-(4-methylpiperazin-1-yl)phenyl)-1-(6-methylpyridin-2-yl)-1H-pyrazole-3-carboxyamide], 10 to 100 nM.
To `CC(=O)N1CCN(c2ccc(NC(=O)c3cc(-c4ccc5ncnn5c4)n(-c4cccc(C)n4)n3)cc2)CC1` [Example 108, 5-([1,2,4]triazolo[1,5-α]pyridin-6-yl)-N-(4-(4-acetylpiperazin-1-yl)phenyl)-1-(6-methylpyridin-2-yl)-1H-pyrazole-3-carboxyamide] belongs around 10 nM; to `CC(=O)Nc1ccc(NC(=O)c2cc(-c3ccc4ncnn4c3)n(-c3cccc(C)n3)n2)cc1` [Example 110, 5-([1,2,4]triazolo[1,5-α]pyridin-6-yl)-N-(4-acetamidophenyl)-1-(6-methylpyridin-2-yl)-1H-pyrazole-3-carboxyamide], 10 to 100 nM.
`Cc1cccc(-n2nc(C(=O)Nc3ccc(CN(C)C)cc3)cc2-c2ccc3ncnn3c2)n1` [Example 111, 5-([1,2,4]triazolo[1,5-α]pyridin-6-yl)-N-(4-((dimethylamino)methyl)phenyl)-1-(6-methylpyridin-2-yl)-1H-pyrazole-3-carboxyamide]: the half-inhibitory concentration (IC50) is above 100 nM.
On to `CNC(=O)c1ccccc1NC(=O)c1cc(-c2ccc3ncnn3c2)n(-c2cccc(C)n2)n1` [Example 112, 5-([1,2,4]triazolo[1,5-α]pyridin-6-yl)-N-(2-(methylcarbamoyl)phenyl)-1-(6-methylpyridin-2-yl)-1H-pyrazole-3-carboxyamide], for which the half-inhibitory concentration (IC50) lay in the range of 10 to 100 nM.
For `CNC(=O)c1ccc(NC(=O)c2cc(-c3ccc4ncnn4c3)n(-c3cccc(C)n3)n2)cc1` [Example 113, 5-([1,2,4]triazolo[1,5-α]pyridin-6-yl)-N-(4-(methylcarbamoyl)phenyl)-1-(6-methylpyridin-2-yl)-1H-pyrazole-3-carboxyamide] the value was 10 to 100 nM.
